Patent US7671203B2, “Method and system for separation and purification of at least one narcotic alkaloid using reverse phase preparative chromatography” (Mallinckrodt Inc., priority 2003, dated 2010)

Test: Solubility of codeine in water

COc1ccc2c3c1O[C@H]1[C@@H](O)C=C[C@H]4[C@@H](C2)N(C)CC[C@@]341 [Codeine, codeine]
concentration above which codeine is not fully soluble in water: ≤ 30 grams/liter
